Data: patent US20240166660A1, “KRAS G12C INHIBITORS” (BeiGene Switzerland GmbH, priority 2021, published 2024)

Biological target: KRAS (aa 1-169) G12C, C51S, C80L, C118S (Homo sapiens (Human), UniProt P01116, C118S/C51S/C80L/G12C)
Assay: Biochemical functional assay: SOS1-mediated nucleotide exchange of GDP-loaded KRAS G12C, binding to GST-cRaf RBD, FRET readout
Details: 3 hrs pre-incubation with compound at 24° C., SOS1, GTPyS, inhibition of nucleotide exchange
How it was run: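 GDP-loaded His-tagged KRAS construct preincubated with compound 3 h at 24° C in 25 mM HEPES pH7.5, 10 mM MgCl2, 0.01% Triton X-100; SOS1 (aa 564-1049), GTPγS and GST-cRaf RBD added for 3 h, then anti-His Tb cryptate/anti-GST XL665 for 3 h. HTRF 665/620 ratio; IC50 by four-parameter logistic fit.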

Sequence of KRAS (aa 1-169) G12C, C51S, C80L, C118S (P01116 other isoform, or with tags, fused parts or gaps G12C/C51S/C80L/C118S): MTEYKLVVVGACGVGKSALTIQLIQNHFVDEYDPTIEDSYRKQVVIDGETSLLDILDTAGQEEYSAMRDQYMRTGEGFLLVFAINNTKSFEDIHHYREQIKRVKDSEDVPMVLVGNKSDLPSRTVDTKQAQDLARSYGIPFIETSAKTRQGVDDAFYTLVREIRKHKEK

Row | Compound | IC50
1 | C=C(F)C(=O)N1CCN(c2nc(OC[C@@H]3CCCN3C)nc3cc(-c4c(Cl)c(Cl)cc5[nH]ncc45)c4c(c23)OCCC4)C[C@@H]1CC#N [Compound B36, 2-((2S)-4-(5-(5,6-dichloro-1H-indazol-4-yl)-8-(((S)-1-methylpyrrolidin-2-yl)methoxy)-3,4-dihydro-2H-pyrano[2,3-f]quinazolin-10-yl)-1-(2-fluoroacryloyl)piperazin-2-yl)acetonitrile] | 47 nM
2 | C=C(F)C(=O)N1CCN(c2nc(OC[C@@H]3CCCN3C)nc3cc(-c4cccc5cccc(F)c45)c4c(c23)OCCC4)C[C@@H]1CC#N [Compound B37, 2-((S)-1-(2-fluoroacryloyl)-4-(5-(8-fluoronaphthalen-1-yl)-8-(((S)-1-methylpyrrolidin-2-yl)methoxy)-3,4-dihydro-2H-pyrano[2,3-f]quinazolin-10-yl)piperazin-2-yl)acetonitrile] | 8 nM
3 | C=C(F)C(=O)N1CCN(c2nc(OC[C@@H]3CCCN3C)nc3cc(-c4c(F)cccc4F)c4ccoc4c23)C[C@@H]1CC#N [Compound B38, 2-((S)-4-(4-(2,6-difluorophenyl)-7-(((S)-1-methylpyrrolidin-2-yl)methoxy)furo[2,3-f]quinazolin-9-yl)-1-(2-fluoroacryloyl)piperazin-2-yl)acetonitrile] | 913 nM
4 | C=C(F)C(=O)N1CCN(c2nc(OC[C@@H]3CCCN3C)nc3cc(-c4c(O)cccc4F)c4ccoc4c23)C[C@@H]1CC#N [Compound B39, 2-((2S)-4-(4-(2-fluoro-6-hydroxyphenyl)-7-(((S)-1-methylpyrrolidin-2-yl)methoxy)furo[2,3-f]quinazolin-9-yl)-1-(2-fluoroacryloyl)piperazin-2-yl)acetonitrile] | 1040 nM
5 | C=C(F)C(=O)N1CCN(c2nc(OC[C@@H]3CCCN3C)nc3cc(-c4ccccc4C(F)(F)F)c4ccoc4c23)C[C@@H]1CC#N [Compound B40, 2-((S)-1-(2-fluoroacryloyl)-4-(7-(((S)-1-methylpyrrolidin-2-yl)methoxy)-4-(2-(trifluoromethyl)phenyl)furo[2,3-f]quinazolin-9-yl)piperazin-2-yl)acetonitrile] | 14 nM
6 | C=C(F)C(=O)N1CCN(c2nc(OC[C@@H]3CCCN3C)nc3cc(-c4cccc5cccc(Cl)c45)c4ccoc4c23)C[C@@H]1CC#N [Compound B41, 2-((S)-4-(4-(8-chloronaphthalen-1-yl)-7-(((S)-1-methylpyrrolidin-2-yl)methoxy)furo[2,3-f]quinazolin-9-yl)-1-(2-fluoroacryloyl)piperazin-2-yl)acetonitrile] | 3.8 nM
7 | C=C(F)C(=O)N1CCN(c2nc(OC[C@@H]3CCCN3C)nc3cc(-c4c(F)c(Cl)cc5[nH]ncc45)c4c(c23)OCCC4)C[C@@H]1CC#N [Compound B42, 2-((2S)-4-(5-(6-chloro-5-fluoro-1H-indazol-4-yl)-8-(((S)-1-methylpyrrolidin-2-yl)methoxy)-3,4-dihydro-2H-pyrano[2,3-f]quinazolin-10-yl)-1-(2-fluoroacryloyl)piperazin-2-yl)acetonitrile] | 43 nM
8 | C=C(F)C(=O)N1CCN(c2nc(OC[C@@H]3CCCN3C)nc3cc(-c4cccc5cccc(C)c45)c4c(c23)OCCC4)C[C@@H]1CC#N [Compound B43, 2-((S)-1-(2-fluoroacryloyl)-4-(5-(8-methylnaphthalen-1-yl)-8-(((S)-1-methylpyrrolidin-2-yl)methoxy)-3,4-dihydro-2H-pyrano[2,3-f]quinazolin-10-yl)piperazin-2-yl)acetonitrile] | 13 nM
9 | C=C(F)C(=O)N1CCN(c2nc(OC[C@@H]3CCCN3C)nc3cc(-c4ccccc4F)c4ccoc4c23)CC1 [Compound B44, (S)-2-fluoro-1-(4-(4-(2-fluorophenyl)-7-((1-methylpyrrolidin-2-yl)methoxy)furo[2,3-f]quinazolin-9-yl)piperazin-1-yl)prop-2-en-1-one] | 6350 nM
10 | C=CC(=O)N1CCN(c2nc(OC[C@@H]3CCCN3C)nc3cc(-c4ccccc4F)c4ccoc4c23)CC1 [Compound B45, (S)-1-(4-(4-(2-fluorophenyl)-7-((1-methylpyrrolidin-2-yl)methoxy)furo[2,3-f]quinazolin-9-yl)piperazin-1-yl)prop-2-en-1-one] | 2020 nM
11 | C=CC(=O)N1CCN(c2nc(OC[C@@H]3CCCN3C)nc3cc(-c4c(O)cccc4F)c4ccoc4c23)CC1 [Compound B46, 1-(4-(4-(2-fluoro-6-hydroxyphenyl)-7-(((S)-1-methylpyrrolidin-2-yl)methoxy)furo[2,3-f]quinazolin-9-yl)piperazin-1-yl)prop-2-en-1-one] | 621 nM
12 | C=CC(=O)N1CCN(c2nc(OC3CCCC3N(C)C)nc3cc(-c4cccc5cccc(Cl)c45)c4c(c23)OCCC4)C[C@@H]1CC#N (stereo partly drawn) [Compound B48, 2-((2S)-1-acryloyl-4-(5-(8-chloronaphthalen-1-yl)-8-((2-(dimethylamino)cyclopentyl)oxy)-3,4-dihydro-2H-pyrano[2,3-f]quinazolin-10-yl)piperazin-2-yl)acetonitrile] | 14 nM
13 | C=CC(=O)N1CCN(c2nc(OC[C@@H]3CCCN3C)nc3cc(-c4cccc5cccc(Cl)c45)c4ccoc4c23)[C@@H](C)C1 [Compound B49, 1-((S)-4-(4-(8-chloronaphthalen-1-yl)-7-(((S)-1-methylpyrrolidin-2-yl)methoxy)furo[2,3-f]quinazolin-9-yl)-3-methylpiperazin-1-yl)prop-2-en-1-one] | 128 nM
14 | C=C(F)C(=O)N1CCN(c2nc(OC3CCCC3N(C)C)nc3cc(-c4cccc5cccc(Cl)c45)c4c(c23)OCCC4)C[C@@H]1CC#N (stereo partly drawn) [Compound B50, 2-((2S)-4-(5-(8-chloronaphthalen-1-yl)-8-((2-(dimethylamino)cyclopentyl)oxy)-3,4-dihydro-2H-pyrano[2,3-f]quinazolin-10-yl)-1-(2-fluoroacryloyl)piperazin-2-yl)acetonitrile] | 289 nM
15 | C=CC(=O)N1CC2(CCN(c3nc(OC[C@@H]4CCCN4C)nc4cc(-c5cccc6cccc(Cl)c56)c5ccoc5c34)CC2)C1 [Compound B51, (S)-1-(7-(4-(8-chloronaphthalen-1-yl)-7-((1-methylpyrrolidin-2-yl)methoxy)furo[2,3-f]quinazolin-9-yl)-2,7-diazaspiro[3.5]nonan-2-yl)prop-2-en-1-one] | 1010 nM
16 | C=CC(=O)N1C[C@H](C)N(c2nc(OC[C@@H]3CCCN3C)nc3cc(-c4cccc5cccc(Cl)c45)c4ccoc4c23)C[C@H]1C [Compound B52, 1-((2R,5S)-4-(4-(8-chloronaphthalen-1-yl)-7-(((S)-1-methylpyrrolidin-2-yl)methoxy)furo[2,3-f]quinazolin-9-yl)-2,5-dimethylpiperazin-1-yl)prop-2-en-1-one] | 654 nM
17 | C=C(F)C(=O)N1CCN(c2nc(OC[C@@H]3C[C@@H](F)CN3C)nc3cc(-c4cccc5cccc(Cl)c45)c4c(c23)OCCC4)C[C@@H]1CC#N [Compound B53, 2-((S)-4-(5-(8-chloronaphthalen-1-yl)-8-(((2S,4R)-4-fluoro-1-methylpyrrolidin-2-yl)methoxy)-3,4-dihydro-2H-pyrano[2,3-f]quinazolin-10-yl)-1-(2-fluoroacryloyl)piperazin-2-yl)acetonitrile] | 28 nM
18 | C=C(F)C(=O)N1CCN(c2nc(OC[C@@H]3C[C@H](F)CN3C)nc3cc(-c4cccc5cccc(Cl)c45)c4c(c23)OCCC4)C[C@@H]1CC#N [Compound B54, 2-((S)-4-(5-(8-chloronaphthalen-1-yl)-8-(((2S,4S)-4-fluoro-1-methylpyrrolidin-2-yl)methoxy)-3,4-dihydro-2H-pyrano[2,3-f]quinazolin-10-yl)-1-(2-fluoroacryloyl)piperazin-2-yl)acetonitrile] | 40 nM
19 | C=C(F)C(=O)N1CCN(c2nc(O[C@@H]3CN(C)C[C@H]3OC)nc3cc(-c4cccc5cccc(Cl)c45)c4c(c23)OCCC4)C[C@@H]1CC#N [Compound B55, 2-((S)-4-(5-(8-chloronaphthalen-1-yl)-8-(((3R,4R)-4-methoxy-1-methylpyrrolidin-3-yl)oxy)-3,4-dihydro-2H-pyrano[2,3-f]quinazolin-10-yl)-1-(2-fluoroacryloyl)piperazin-2-yl)acetonitrile] | 134 nM
20 | C=CC(=O)N1CCN(c2nc(OC[C@@H]3CCCN3C)nc3cc(-c4c(C)cccc4C)c4ccoc4c23)CC1 [Compound B56, (S)-1-(4-(4-(2,6-dimethylphenyl)-7-((1-methylpyrrolidin-2-yl)methoxy)furo[2,3-f]quinazolin-9-yl)piperazin-1-yl)prop-2-en-1-one] | 632 nM
21 | C=CC(=O)N1CCN(c2nc(OC[C@@H]3CCCN3C)nc3cc(-c4c(F)cccc4Cl)c4ccoc4c23)CC1 [Compound B57, 1-(4-(4-(2-chloro-6-fluorophenyl)-7-(((S)-1-methylpyrrolidin-2-yl)methoxy)furo[2,3-f]quinazolin-9-yl)piperazin-1-yl)prop-2-en-1-one] | 1020 nM
22 | C=CC(=O)N1CCN(c2nc(OC[C@@H]3CCCN3C)nc3cc(-c4ccccc4C4CC4)c4ccoc4c23)CC1 [Compound B58, (S)-1-(4-(4-(2-cyclopropylphenyl)-7-((1-methylpyrrolidin-2-yl)methoxy)furo[2,3-f]quinazolin-9-yl)piperazin-1-yl)prop-2-en-1-one] | 958 nM
23 | C=CC(=O)N1CCN(c2nc(OC[C@@H]3CCCN3C)nc3cc(-c4c(Cl)cccc4Cl)c4ccoc4c23)CC1 [Compound B59, (S)-1-(4-(4-(2,6-dichlorophenyl)-7-((1-methylpyrrolidin-2-yl)methoxy)furo[2,3-f]quinazolin-9-yl)piperazin-1-yl)prop-2-en-1-one] | 745 nM
24 | C=C(F)C(=O)N1CCN(c2nc(OC[C@]3(C)CCCN3C)nc3cc(-c4cccc5cccc(Cl)c45)c4c(c23)OCCC4)C[C@@H]1CC#N [Compound B60, 2-((S)-4-(5-(8-chloronaphthalen-1-yl)-8-(((S)-1,2-dimethylpyrrolidin-2-yl)methoxy)-3,4-dihydro-2H-pyrano[2,3-f]quinazolin-10-yl)-1-(2-fluoroacryloyl)piperazin-2-yl)acetonitrile] | 252 nM
